Numbered stars: 1 amine (or outer) side, 2 acyl side, 3 side chain; on linkers, the order of the positions; unused ones are H or OH. Square brackets hold non-standard residues; d marks the D form. Ends that are not written are not given here. Peptide text beside a SMILES is read from it. Nip(3R) = O=C([C@@H]1CCCN([*:1])C1)[*:2]; Dmt = Cc1cc(O)cc(C)c1C[C@H](N)C(=O)O; Inp = O=C(O)C1CCNCC1
Columns and labels:
κ-opioid receptor = molecular target: T1, κ-opioid receptor (Homo sapiens, UniProt P41145); assay: Opioid receptor binding assay, [3H]U-69593 competition; conditions: CHO cell membranes, 0.5 nM [3H]U-69593, 25 °C, 120 min; mean ± SEM of four experiments in duplicate; read-out: Ki KOR
T1 construct: purchased; host or cells: CHO cells (membranes)
Description: The opioid receptor binding assays were performed using the modified method described elsewhere. Briefly, commercial membranes of Chinese Hamster Ovary (CHO) cells transfected with human opioid receptors were used. The binding affinities for µ-, δ- and κ-opioid receptors were determined by radioligand competition analysis using [^3H]DAMGO, [^3H]deltorphin-2, and [^3H]U-69593, respectively. Membranes were incubated at 25 °C for 120 min with appropriate concentrations of a tested peptide in the presence of 0.5 nM radioligand in a total volume of 0.5 mL of 50 mM Tris/HCl (pH 7.4) containing bovine serum albumin (BSA) (1 mg/mL), bacitracin (50 µg/mL), bestatin (30 µM), and captopril (10 µM). Non-specific binding was determined in the presence of 1 µM naloxone. Incubations were terminated by the rapid filtration through the GF/B Whatman (Brentford, UK) glass fibre strips (pre-soaked for 2 h in 0.5% (v/v) […]) using Millipore Sampling Manifold (Billerica, MA, USA). The filters were washed thrice with 4 mL of ice-cold Tris buffer solution. Packard Tri-Carb 2100 TR liquid scintillation counter (Ramsey, MN, USA) was used to measure the bound radioactivity after overnight extraction of the filters in 4 mL of a Perkin Elmer Ultima Gold scintillation fluid (Wellesley, MA, USA). The data were analyzed by a nonlinear least square regression analysis computer program Graph Pad PRISM 6.0 (Graph Pad Software Inc., San Diego, CA, USA). The values of the inhibitory constants (Ki) were calculated according to the equation of Cheng and Prusoff.
The ability of R-6 and its new analogs to bind to µ-, δ- and κ-opioid receptors was determined by competitive binding assays against [^3H]DAMGO, [^3H][Ile^5,6]deltorphin-2 and [^3H]U-69593, respectively, using membranes of CHO cells transfected with opioid receptors and are summarized in Table 2.

SH-SY5Y cells = assay: Intracellular ROS production in 6-OHDA-treated SH-SY5Y cells; assay type: cell-based, human; conditions: 6-OHDA 100 µM; for decrease of ROS production stimulated by 6-OHDA: peptide at both 1 and 10 µM
Description: (§1) The detection of ROS generated in injured cells was evaluated using the 5(6)-carboxy-2ʹ,7ʹ-dichlorofluorescein diacetate (carboxy-H2DCFDA) reagent (Invitrogen, Bleiswijk, Netherlands). After incubation, cells were washed with ice-cold Phosphate-Buffer Saline (PBS). Then, the carboxyl-H2DCFDA (100 µL, 20 µM) reagent was added and incubated for 1 h at 37 °C. Finally, the fluorescence intensity was measured at wavelengths of […], and ROS levels were presented in percentage of control (non-treated cells).

[1] = tested on: LPS-stimulated RAW 264.7 cells; assay: Intracellular ROS formation in LPS-stimulated RAW 264.7 cells; assay type: cell-based, mouse; conditions: LPS-stimulated, 24 h; for decrease of ROS levels: peptides 0.1-10 µM
Description: The cytotoxic and anti-inflammatory effects of peptides on RAW 264.7 cells were estimated using MTT assay. Cells were incubated with peptides (0.1–10 µM) for 24 h to assess their cytoprotective activity. In the anti-inflammatory model, RAW 264.7 cells were exposed to LPS (Millipore Sigma, Darmstadt, Germany) at 1 µg/mL in the absence/presence of peptide at non-toxic concentrations (0.1–10 µM). Then, the MTT reagent was added to wells, and cells were incubated for 1.5 h at 37 °C. After this time, MTT was removed, 100 µL DMSO was added, and the resulting absorbance was read in a microplate reader (Synergy 2 BioTek Microplate Reader, Winooski, VT, USA) at 570 nm.
as §1

AKT = assay: Western blot, AKT phosphorylation in 6-OHDA-treated SH-SY5Y cells; assay type: cell-based, human; conditions: for AKT phosphorylation / stimulation time for maximum effect on AKT phosphorylation: peptide 10 µM; for AKT phosphorylation: 2.5-10 min, 6-OHDA 100 µM treated cells; for stimulation time for maximum effect on AKT phosphorylation: 6-OHDA-treated cells, p-AKT (Ser473)/total AKT; for effect of peptide on AKT phosphorylation after LY 294002 pre-treatment: LY 294002 20 µM 30 min before peptide 10 µM and 6-OHDA 100 µM, 7.5 min (5), 2.5 min (7)
Description: The neuroblastoma SH-SY5Y cells were grown in a 6-well plate and when 80–90% confluent treated with 6-OHDA (100 µM) for 24 h. Then cells were stimulated with peptides for 2.5, 5, 7.5 and 10 min (for AKT) or 24 h (for mTOR). When needed, a 30 min pre-incubation step with LY 294002 was included before analogs and 6-OHDA addition. Stimulation was terminated by aspiration of the medium. Cells were washed 2 times with ice-cold PBS, and then 200 µL of ice-cold lysis buffer [150 mM NaCl, 20 mM Tris–HCl, glycerol, 5 mM EDTA, 0.5 mM phenylmethylsulphonylfluoride (PMSF), 10% Triton X-100, 100 mM protease inhibitors, pH 7.4] was added. Cells were incubated on ice for 15 min. Lysates were then centrifuged at 12,000×g for 10 min at 4 °C, and the supernatants were used as the total cell lysates. The protein content in the supernatants was quantified using the Bio-Rad protein assay kit. Equal amounts of protein were separated on 10% sodium dodecyl sulfate (SDS)-polyacrylamide gels and transferred to polyvinylidene difluoride membranes from (PVDF, Millipore, Cork, Ireland). Non-specific binding was blocked with tris-buffered saline Tween-20 (TBS-T: 150 mM NaCl, 20 mM Tris–HCl, 0.1% Tween 20, pH 7.5) containing 5% nonfat milk for 2 h at room temperature. Then, the membrane was incubated overnight at 4 °C with one of the following specific primary antibodies: Vinculin (1:1000 dilution; Cell Signalling Technology, Danvers, MA, USA), p-AKT (1:1000 dilution; Cell Signalling Technology, Danvers, MA, USA), AKT (1:1000 dilution; Cell Signalling Technology, Danvers, MA, USA), p-mTOR (1:1000 dilution; Cell Signalling Technology, Danvers, MA, USA), mTOR (1:1000 dilution; Cell Signalling Technology, Danvers, MA, USA). After incubation, membranes were washed six times per 5 min with TBS-T. In the next step, membranes were incubated with HRP-conjugated secondary antibodies (1:1000 dilution; Cell Signalling Technology, Danvers, MA, USA) for 1 h. Following six washes with TBS-T, the protein bands were detected with the Clarity Western ECL reagent from Bio-Rad. The band intensity was quantified by NIH ImageJ densitometric analysis. For quantification, specific phosphorylation was calculated as the ratio of phosphorylated AKT or mTOR signals to the total Akt or mTOR signal detected. Values of unstimulated samples were set to 1.0. The original immunoblots are provided in Supplementary data.

Molecule	Ki (κ-opioid receptor) [nM]	effect on ROS production (SH-SY5Y cells; peptide 10 µM)	decrease of ROS levels ([1]; DCFH-DA) [%]	decrease of ROS production stimulated by 6-OHDA (SH-SY5Y cells; 6 h)	AKT phosphorylation (AKT)	stimulation time for maximum effect on AKT phosphorylation (AKT) [min]	effect on ROS levels ([1]; peptide 0.1 µM)	effect of peptide on AKT phosphorylation after LY 294002 pre-treatment (AKT)	reduction of ROS levels ([1]; peptide 0.1 µM, DCFH-DA)	decrease of intracellular ROS levels stimulated by 6-OHDA (SH-SY5Y cells; peptide 0.1 µM, 6 h)
Cc1cc(O)cc(C)c1C[C@H](N)C(=O)N1CCC[C@H]1C(=O)N[C@@H](CC(C)C)C(=O)N[C@@H](CC(=O)O)C(=O)N[C@@H](CC(C)C)C(=O)N[C@@H](Cc1ccccc1)C(=O)O [analog 1, Dmt-Pro-Leu-Asp-Leu-Phe-OH] (H-[Dmt]PLDLF-OH)	> 1000	couldn’t decrease	≤ 40	–	–	–	–	–	–	–
CC(C)C[C@H](NC(=O)[C@@H]1CCCN(C(=O)[C@@H](N)Cc2ccc(O)cc2)C1)C(=O)N[C@@H](CC(=O)O)C(=O)N[C@@H](CC(C)C)C(=O)N[C@@H](Cc1ccccc1)C(=O)O [analog 2, Tyr-(R)-Nip-Leu-Asp-Leu-Phe-OH] (H-Y[Nip(3R)]LDLF-OH)	> 1000	–	≤ 40	–	–	–	–	–	–	–
CC(C)C[C@H](NC(=O)C1CCN(C(=O)[C@@H](N)Cc2ccc(O)cc2)CC1)C(=O)N[C@@H](CC(=O)O)C(=O)N[C@@H](CC(C)C)C(=O)N[C@@H](Cc1ccccc1)C(=O)O [analog 3, Tyr-Inp-Leu-Asp-Leu-Phe-OH] (H-Y[Inp]LDLF-OH)	> 1000	–	–	about 60%	transiently stimulated	7.5	protective effect	–	–	–
Cc1cc(O)cc(C)c1C[C@H](N)C(=O)N1CCC[C@@H](C(=O)N[C@@H](CC(C)C)C(=O)N[C@@H](CC(=O)O)C(=O)N[C@@H](CC(C)C)C(=O)N[C@@H](Cc2ccccc2)C(=O)O)C1 [analog 4, Dmt-(R)-Nip-Leu-Asp-Leu-Phe-OH] (H-[Dmt][Nip(3R)]LDLF-OH)	> 1000	–	≤ 40	–	–	–	–	–	–	–
Cc1cc(O)cc(C)c1C[C@H](N)C(=O)N1CCC(C(=O)N[C@@H](CC(C)C)C(=O)N[C@@H](CC(=O)O)C(=O)N[C@@H](CC(C)C)C(=O)N[C@@H](Cc2ccccc2)C(=O)O)CC1 [analog 5, Dmt-Inp-Leu-Asp-Leu-Phe-OH] (H-[Dmt][Inp]LDLF-OH)	> 1000	–	–	about 60%	transiently stimulated	7.5	protective effect	significantly blocked	–	–
CC(C)C[C@H](NC(=O)C1CCN(C(=O)[C@@H](N)Cc2ccc(O)cc2)CC1)C(=O)N[C@@H](CC(=O)O)C(=O)N[C@@H](CC(C)C)C(=O)N[C@@H](Cc1ccccc1)C(N)=O [analog 7, Tyr-Inp-Leu-Asp-Leu-Phe-NH2] (H-Y[Inp]LDLF-NH2)	> 1000	–	–	about 60%	transiently stimulated	2.5	–	significantly blocked	about 50%	–
YPLDLF [R-6, rubiscolin-6]	> 1000	–	≤ 40	–	–	–	–	–	–	about 70%
YPLDLF-NH2 [analog 6, Tyr-Pro-Leu-Asp-Leu-Phe-NH2]	> 1000	–	–	–	–	–	–	–	–	–

From paper PMC10901950, “Neuroprotective and Anti-inflammatory Effects of Rubiscolin-6 Analogs with Proline Surrogates in Position 2” (Neurochemical Research, 2023)
